Reference: US4795715A, “Aminoalkoxy or carboxyalkoxy derivatives of propranolol for immunoassay applications” (Drug Science Foundation, priority 1986, dated 1989)

System: propranolol antiserum (produced in Example 1)
Assay: Specificity (cross-reactivity) of the antiserum of Example 1: inhibition of 3H propranolol-antibody complex formation (radioimmunoassay)
Format: binding, rabbit
Settings: for relative efficiency of the compound with respect to propranolol as an inhibitor (percentage): propranolol = 100 %; for ID50 (amount of compound giving 50% inhibition of 3H-propranolol binding to antiserum): dl-[4-3H]-propranolol tracer
Description: Five New Zealand White rabbits were injected with an emulsion of the antigen as follows. For each animal, a solution was prepared consisting of 1 mg. of antigen dissolved in 0.8 ml. of 0.01M phosphate buffered saline at pH 7.4 and emulsified with 1.0 ml. of complete Freund's adjuvant. One hundred microliters of this emulsion was injected subcutaneously into each of the hind toe pads with the remainder divided between the hindquarters intramuscularly. One week later the animals were boosted with the same formulation, and additional boosts were administered at montly intervals thereafter. […] Bleedings were taken from the central ear artery seven to ten days after each boost, and weekly once the titre was sufficient. Blood was allowed to clot overnight at 4° C. and centrifuged to separate antiserum.
Radioactive dl-[4-^3 H]-propranolol with a specific activity of 21 C./mMol was obtained from the Radiochemical Center Amersham. This tritiated propranolol was diluted in the assay buffer just prior to use to obtain about 15000 cpm in 100 microliters of solution; 100 microliters of this preparation was added to each tube, including two background controls. The propranolol antiserum was diluted to 1:2000 in the buffer and 100 microliters of this solution was added to each tube with the exception of the background controls. The tubes were then vortexed, incubated at 37° C. for one hour, and cooled in an ice bath for 10 minutes prior to the addition of dextran-coated charcoal suspension.
Each tube was treated with one ml. of cold dextran-coated charcoal suspension and vortexed briefly, then incubated at 0° C. for 7-10 minutes prior to centrifugation at 5000 RPM in a refrigerated centriguge for 25 minutes. The supernatants were decanted into suitably labelled scintillation vials, dissolved in 10 ml. of counting cocktail and counted for 1-5 minutes. Counting cocktail was prepared by dissolving 40 g. of Omnifluor™ (purchased from New England Nuclear) and 2 liters of S-A-S Solubilizer™ (purchased from Research Products International Corp.) in 10 liters of toluene.

Row | Compound | relative efficiency of the compound with respect to propranolol as an inhibitor (percentage) [%] | cross reactivity with the antiserum (in words) | ID50 (amount of compound giving 50% inhibition of 3H-propranolol binding to antiserum) [ng]
1 | CC(C)NCC(O)COc1cccc2ccccc12 (racemic) [Propranolol] | 100 |  | 
2 | CC(C)NCC(O)COc1ccc(O)c2ccccc12 (stereo not drawn) [4-Hydroxy-Propranolol] | 30 | significant cross reactivity | 
3 | CC(C)NCC(O)COc1cccc2c(O)cccc12 (stereo not drawn) [5-Hydroxy-Propranolol] | 90 | cross-react | 
4 | NCC(O)COc1cccc2ccccc12 (stereo not drawn) [Ndesisopropyl Propranolol Amino] | 0.06 |  | 780
5 | CC(C)NCC(COc1cccc2ccccc12)OC1OC(C(=O)O)C(O)C(O)C1O (stereo not drawn) [Propranolol Glucuromide] | 0.07 |  | 700
